Measured values as given in publication PMC3511314, “Functional Characterization of Two M42 Aminopeptidases Erroneously Annotated as Cellulases” (PLoS ONE, 2012).

Columns and labels:
Assay type in all cases: biochemical
[1] = target: T1, TmPep1050 (Thermotoga maritima, UniProt Q9X0E0); experiment: specific activity of pNA hydrolysis at […] substrate
T1 construct: gene TM_1050; recombinant TmPep1050 (TM1050 ORF)
T1 sequence (Q9X0E0 1-331): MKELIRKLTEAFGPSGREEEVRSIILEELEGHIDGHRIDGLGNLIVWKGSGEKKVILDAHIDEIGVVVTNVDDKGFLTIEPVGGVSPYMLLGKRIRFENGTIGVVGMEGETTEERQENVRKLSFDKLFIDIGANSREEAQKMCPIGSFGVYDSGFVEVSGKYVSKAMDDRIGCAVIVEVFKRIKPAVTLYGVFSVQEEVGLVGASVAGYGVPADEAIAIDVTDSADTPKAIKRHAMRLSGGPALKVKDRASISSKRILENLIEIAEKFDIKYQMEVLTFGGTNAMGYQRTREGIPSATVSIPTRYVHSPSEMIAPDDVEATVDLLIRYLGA

[2] = target: T2, CelM (Acetivibrio thermocellus, UniProt P55742); experiment: specific activity of pNA hydrolysis at […] substrate
T2 construct: recombinant CelM bearing a C-terminal hexahistidine tag
T2 sequence (P55742 1-330): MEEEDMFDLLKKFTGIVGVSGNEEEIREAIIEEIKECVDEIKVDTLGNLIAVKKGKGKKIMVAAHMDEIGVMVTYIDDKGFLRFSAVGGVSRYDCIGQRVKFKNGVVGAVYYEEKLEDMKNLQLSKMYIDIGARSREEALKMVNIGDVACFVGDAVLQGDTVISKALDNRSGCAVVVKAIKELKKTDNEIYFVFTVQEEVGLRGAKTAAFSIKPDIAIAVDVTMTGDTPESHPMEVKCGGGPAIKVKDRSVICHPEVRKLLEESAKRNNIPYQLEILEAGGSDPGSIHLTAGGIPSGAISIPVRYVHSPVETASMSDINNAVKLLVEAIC

[3] = target: T1, TmPep1050; experiment: inhibition of leucine aminopeptidase activity of purified enzyme, apparent Ki
[4] = target: T2, CelM; experiment: as above

Row | SMILES | TmPep1050 sp act [1] [µmol min^−1 µmol^−1] | CelM sp act [2] [µmol min^−1 µmol^−1] | Ki [3] [nM] | Ki [4] [nM]
1 | CC(C)[C@H](N)C(=O)Nc1ccc([N+](=O)[O-])cc1 [L-Val-pNA] | 14.3±1.8 | 8.4±0.016 |  | 
2 | CC(C)C[C@H](NC(=O)[C@@H](O)[C@H](N)Cc1ccccc1)C(=O)O [bestatin] |  |  | 432 ± 72 | 292 ± 66
